Results reported in ChEMBL document CHEMBL4354822, “Ligand-Based Design of Nondimethylphenyl-Diarylpyrimidines with Improved Metabolic Stability, Safety, and Oral Pharmacokinetic Profiles” (J Med Chem, 2019).
pEC50, pIC50: −log10 of the molar value.

Tests used:
[1] = tested on: Human immunodeficiency virus 1; test: Antiviral activity against HIV1 3B infected in human MT4 cells incubated assessed as reduction in virus-induced cytopathic effect for 5 days by MTT assay; type: functional, organism-based; details: Human immunodeficiency virus 1, 3B, MT4, 120 h
[2] = tested on: MT4; test: Cytotoxicity against human MT4 cells assessed as reduction in cell viability incubated for 5 days by MTT assay; type: functional; details: MT4, 120 h
[3] = Selectivity index, ratio of CC50 for human MT4 cells to EC50 for antiviral activity against HIV1 3B infected in human MT4 cells incubated for 5 days by MTT assay; type: toxicity, cell-based; details: MT4 cells (uninfected for CC50; HIV-1 3B infected for EC50)
[4] = tested on: Human immunodeficiency virus 1; test: Antiviral activity against HIV1 harboring reverse transcriptase L100I mutant infected in human MT4 cells assessed as reduction in virus-induced cytopathic effect incubated for 5 days by MTT assay; type: functional, organism-based; details: Human immunodeficiency virus 1, MT4, 120 h
[5] = tested on: Human immunodeficiency virus 1; test: Antiviral activity against HIV1 harboring reverse transcriptase K103N mutant infected in human MT4 cells assessed as reduction in virus-induced cytopathic effect incubated for 5 days by MTT assay; type: functional, organism-based; details: Human immunodeficiency virus 1, MT4, 120 h
[6] = tested on: Human immunodeficiency virus 1; test: Antiviral activity against HIV1 harboring reverse transcriptase Y181C mutant infected in human MT4 cells assessed as reduction in virus-induced cytopathic effect incubated for 5 days by MTT assay; type: functional, organism-based; details: Human immunodeficiency virus 1, MT4, 120 h
[7] = tested on: Human immunodeficiency virus 1; test: Antiviral activity against HIV1 harboring reverse transcriptase Y188L mutant infected in human MT4 cells assessed as reduction in virus-induced cytopathic effect incubated for 5 days by MTT assay; type: functional, organism-based; details: Human immunodeficiency virus 1, MT4, 120 h
[8] = tested on: Human immunodeficiency virus 1; test: Antiviral activity against HIV1 harboring reverse transcriptase E138K mutant infected in human MT4 cells assessed as reduction in virus-induced cytopathic effect incubated for 5 days by MTT assay; type: functional, organism-based; details: Human immunodeficiency virus 1, MT4, 120 h
[9] = target: Human immunodeficiency virus type 1 reverse transcriptase (Human immunodeficiency virus 1, UniProt Q72547); test: Inhibition of recombinant wild type HIV1 reverse transcriptase p66/p51 incubated for 40 mins by picogreen dye-based spectrofluorometric analysis
[10] = target: Human immunodeficiency virus type 1 reverse transcriptase (Human immunodeficiency virus 1) (UniProt Q72547); test: Ratio of IC50 for nevirapine to IC50 for test compound for recombinant wild type HIV1 reverse transcriptase p66/p51

Row | SMILES | pEC50 [1] | CC50 [2] [µM] | selectivity ratio at 120 h [3] | other results
1 | N#Cc1ccc(Nc2nccc(Oc3ccc(-c4ccc(C#N)cc4)cc3Cl)n2)cc1 | 8.77 | > 295 | > 179000 | pEC50 [4]: 7.95; pEC50 [5]: > 8.42; pEC50 [6]: 7.86; pEC50 [7]: 6.48; pEC50 [8]: > 8.42; pIC50 [9]: 8.08; Ratio IC50 [10]: 21 to 109
2 | N#Cc1ccc(Nc2nccc(Nc3ccc(-c4ccc(C#N)cc4)cc3F)n2)cc1 | 7.95 | 308 | > 27300 | –
3 | N#Cc1ccc(Nc2nccc(Oc3ccc(-c4ccc(C#N)cc4)c(F)c3F)n2)cc1 | 7.82 | > 294 | > 19200 | –
4 | Cc1cc(Oc2ccnc(Nc3ccc(C#N)cc3)n2)ccc1-c1ccc(C#N)cc1 | 6.14 | 29.4 | 41 | –
5 | COc1cc(Nc2ccnc(Nc3ccc(C#N)cc3)n2)ccc1-c1ccc(C#N)cc1 | 7.76 | 5.26 | 304 | –
6 | N#Cc1ccc(Nc2nccc(Oc3ccc(-c4ccc(C#N)cc4Cl)cc3Cl)n2)cc1 | 5.30 | > 273 | > 55 | –
7 | COc1cc(Oc2ccnc(Nc3ccc(C#N)cc3)n2)ccc1-c1ccc(C#N)cc1 | 8.51 | > 298 | > 100000 | –
8 | O=C1Nc2ccc(Cl)cc2[C@@](C#CC2CC2)(C(F)(F)F)O1 [EFAVIRENZ] | 8.13 | > 6.34 | – | pEC50 [4]: 7.36; pEC50 [5]: 6.99; pEC50 [6]: 8.14; pEC50 [7]: 6.54; pEC50 [8]: 8.20
9 | Cc1ccnc2c1NC(=O)c1cccnc1N2C1CC1 [NEVIRAPINE] | – | > 15 | – | pEC50 [4]: 5.68; pEC50 [5]: < 5.00; pEC50 [6]: < 4.80
10 | N#Cc1ccc(Nc2nccc(Nc3c(F)cc(-c4ccc(C#N)cc4)cc3F)n2)cc1 | – | – | – | Ratio IC50 [10]: 21 to 109
11 | N#Cc1ccc(Nc2nccc(Oc3ccc(-c4ccc(C#N)cc4)cc3C(F)(F)F)n2)cc1 | 8.17 | > 273 | > 40600 | –
12 | N#Cc1ccc(Nc2nccc(Oc3ccc(-c4ccc(C#N)cc4)c(F)c3)n2)cc1 | 8.49 | > 307 | > 98000 | –
13 | Cc1cc(-c2ccc(Oc3ccnc(Nc4ccc(C#N)cc4)n3)c(F)c2)ccc1C#N | 7.30 | > 297 | > 6020 | –
14 | N#Cc1ccc(Nc2nccc(Oc3ccc(-c4ccc(C#N)cc4F)cc3F)n2)cc1 | 8.51 | > 294 | > 98000 | –
15 | N#Cc1ccc(Nc2nccc(Nc3ccc(-c4ccc(C#N)cc4)c(F)c3)n2)cc1 | 7.84 | > 271 | > 18600 | –
16 | Cc1cc(-c2ccc(C#N)c(F)c2)ccc1Oc1ccnc(Nc2ccc(C#N)cc2)n1 | 7.77 | > 297 | > 17400 | –
17 | N#Cc1ccc(Nc2nccc(Oc3ccc(-c4ccc(C#N)c(Cl)c4)cc3Cl)n2)cc1 | 7.20 | 14.9 | 232 | –
18 | N#Cc1ccc(Nc2nccc(Oc3ccc(-c4ccc(C#N)c(F)c4)cc3F)n2)cc1 | 6.92 | > 294 | > 2430 | –
19 | Cc1cc(Nc2ccnc(Nc3ccc(C#N)cc3)n2)ccc1-c1ccc(C#N)cc1 | 7.86 | 12.4 | 894 | –
20 | Cc1cc(C#N)ccc1-c1ccc(Oc2ccnc(Nc3ccc(C#N)cc3)n2)c(F)c1 | 7.18 | > 297 | > 4460 | –
21 | N#Cc1ccc(Nc2nccc(Oc3ccc(-c4ccc(C#N)cc4)c(Cl)c3)n2)cc1 | 8.00 | 31.1 | 3130 | –
22 | N#Cc1ccc(Nc2nccc(Oc3ccc(-c4ccc(C#N)cc4)c(C(F)(F)F)c3)n2)cc1 | 7.74 | > 273 | > 15000 | –
